Source: patent US5420128A, “Pyrimidine derivatives, method of manufacturing the same, and androgen inhibitor” (Otsuka Pharmaceutical Co., Ltd., priority 1990, dated 1995)

Columns and labels:
[1] = target: T1, rat prostate androgen receptor (Rattus norvegicus, UniProt P15207); test: inhibitory activity on binding of ^3 H-5α-DHT on rat prostate androgen receptor; conditions: ^3 H-5α-DHT 1 nM, rat ventral prostate cytosol, about 20 hours at 0° C.; read-out: Inhibitory activity on 5α-DHT specific binding [IC50 (M)]
T1 construct: the supernatant was obtained as cytoplasm fraction; from tissue; host or cells: cytosol (105000×g supernatant) of rat ventral prostate, 24 hours after castration
T1 sequence (P15207 1-902): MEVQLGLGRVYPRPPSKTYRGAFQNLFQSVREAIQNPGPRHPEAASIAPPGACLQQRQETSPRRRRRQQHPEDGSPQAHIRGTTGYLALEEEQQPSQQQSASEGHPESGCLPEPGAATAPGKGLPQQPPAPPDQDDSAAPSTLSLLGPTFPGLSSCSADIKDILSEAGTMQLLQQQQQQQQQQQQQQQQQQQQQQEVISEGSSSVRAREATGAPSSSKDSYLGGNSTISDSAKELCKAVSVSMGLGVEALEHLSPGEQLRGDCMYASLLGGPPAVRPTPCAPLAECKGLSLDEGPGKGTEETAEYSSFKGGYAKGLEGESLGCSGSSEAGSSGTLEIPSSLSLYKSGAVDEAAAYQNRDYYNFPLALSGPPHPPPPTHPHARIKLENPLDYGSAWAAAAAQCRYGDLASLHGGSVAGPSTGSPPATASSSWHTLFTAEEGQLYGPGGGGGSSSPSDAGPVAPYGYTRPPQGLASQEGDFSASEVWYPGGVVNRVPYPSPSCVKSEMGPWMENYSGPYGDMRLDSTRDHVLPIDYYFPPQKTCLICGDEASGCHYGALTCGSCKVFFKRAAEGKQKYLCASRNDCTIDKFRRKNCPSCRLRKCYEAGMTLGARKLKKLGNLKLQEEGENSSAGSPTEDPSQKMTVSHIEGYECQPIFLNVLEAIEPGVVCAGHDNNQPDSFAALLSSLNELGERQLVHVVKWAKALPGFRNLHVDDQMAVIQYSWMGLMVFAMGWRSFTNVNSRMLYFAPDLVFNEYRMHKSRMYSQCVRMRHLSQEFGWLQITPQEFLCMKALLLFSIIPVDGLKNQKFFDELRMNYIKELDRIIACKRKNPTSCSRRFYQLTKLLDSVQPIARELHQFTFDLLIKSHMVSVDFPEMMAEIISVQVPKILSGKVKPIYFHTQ
Description: The compounds obtained in Examples were evaluated in the following pharmacological studies A and B. The pharmacological study A was conducted in conformity with J.B.C. 256 (15) 7998-8005, 1981.
A. Measurement of inhibitory activity on binding of ^3 H-5α-[…] (^3 H-5α,-DHT) on rat prostate androgen receptor
(1) Preparation of cytosol from rat prostate
The rat was sacrificed 24 hours after castration, and the ventral lobe of prostate was removed, and was gently homogenized, on ice water bath, by using a Potter homogenizer in three-fold amount of 0.25M sucrose-TME buffer solution (50 mM tris-HCl (pH 7.4), 0.5 mM mercaptoethanol, and 0.1 mM EDTA-2 Na). The homogenate was filtrated through double gauze, and ultracentrifuged at 105000×g for 60 minutes, and the supernatant was used as androgen receptor.
(2) Measurement of ^3 H-5α-DHT specific binding on prostate cytoplasmic androgen receptor
To the cytosol obtained in (1), ^3 H-5α-DHT (47.8 Ci/mmol) was added, so that a final concentration is adjusted to 1 nM, and 0.25 M sucrose-TME buffer was added to adjust the final volume to 0.5 ml, and the reaction mixture was incubated for about 20 hours at 0° C. An ammonium sulfate solution dissolved in 0.25 M sucrose-TME buffer was mixed to be 35% saturation, and after standing for 90 minutes at 0° C., the mixture was centrifuged at 10000×g for 10 minutes at 4° C., and the precipitate was obtained.
This precipitate was suspended again in 0.8 ml of the above buffer solution, and furthermore in order to remove the free type ^3 H-5α-DHT, 0.2 ml of dextran-carbon powder suspension (4% activated carbon, 0.1% dextran T-70, and 0.1% gelatin dissolved in the above buffer solution) was added and mixed, and the mixture was let stand for 10 minutes at 0° C. At 4° C., in succession, the mixture was centrifuged at 3000×g for 10 minutes, and 0.5 ml of the supernatant was transferred into a vial, and 10 ml of aquasol-2 was added, and radioactivity was measured, and the total binding amount of ^3 H-5α-DHT on the prostate cytoplasma androgen receptor was determined. The nonspecific binding amount was similarly determined by adding a non-radioactive ligand (5α-DHT) to the reaction solution to a final concentration of 1 μM. The difference between the total binding amount and nonspecific binding amount was determined as the specific binding amount on the androgen receptor.
(3) Inhibitory activity of sample compounds on ^3 H-5α-DHT specific binding
The compounds obtained in Examples were incubated with ^3 H-5α-DHT at several concentrations same as in (2), and the specific binding amount of ^3 H-5α-DHT on the androgen receptor was determined. Comparing the obtained value with the value of (2), the IC50 value of the test compounds on ^3 H-5α-DHT specific binding was determined. The following compounds were used as the positive controls.

[2] = target: T1, rat prostate androgen receptor; test: inhibitory activity on binding of ^3 H-mibolerone on rat prostate androgen receptor; conditions: ^3 H-mibolerone 1 nM, triamcinolone acetonide 5 μM, rat ventral prostate cytosol, 20 hours at 0° C.; read-out: Inhibitory activity on mibolerone specific binding [IC50 (M)]
Description: B. Measurement of inhibitory activity on binding of ^3 H-mibolerone on rat prostate androgen receptor
The rat was sacrificed 24 hours after castration, and the ventral lobe of prostate was removed, and was gently homogenized, in ice-cooling water bath, at first by using Polytron and then using Potter type homogenizer, in three-fold amount of buffer solution A (1.5 mM EDTA, 2 mM dithiothreitol, 10 mM molybdate sodium, 10 % by volume of glycerol, 10 mM NaF, 25 mM phosphate sodium, pH 7.2). The obtained homogenate was filtrated through double gauze, and centrifuged at 105000×g for 60 minutes at 4° C., and the supernatant was obtained as cytoplasm fraction.
(2) Measurement of specific binding of ^3 H-mibolerone on prostate cytoplasm androgen receptor
To the cytoplasm fraction obtained in (1), ^3 H-mibolerone (87.0 Ci/mmol) was added, so that a final concentration is adjusted to 1 nM, and at the same time, in order to inhibit binding of ^3 H-mibolerone to progestin receptor, triamsinolone acetonide was added to a final concentration of 5 μM, and the final volume was adjusted to 0.4 ml with buffer solution A, and the reaction mixture was incubated for 20 hours at 0° C. After incubation, 0.5 ml of 60% hydroxylapatite slurry (washed and equilibrate with a buffer solution B: 10 mM NaH2 P04, 20 mM tris-hydrochloric acid, pH 7.2) was added, and incubated for 10 minutes at 0° C., the solution was transferred onto a glass fiber filter, and washed five times with 5 ml portions of buffer solution B containing 0.1% (weight/volume) of Triton X-100, to remove free ^3 H-mibolerone. This glass fiber was transferred into vial, and 10 ml of aquasol-2 was added, and the radioactivity was measured, and the total binding amount of ^3 H-mibolerone on prostate cytoplasm androgen receptor was determined.
The nonspecific binding amount was determined similarly by adding an unlabeled 5α-DHT in the reaction solution to a final concentration of 1 μM. The difference between the total binding amount and nonspecific binding amount was determined as the specific binding amount on the androgen receptor.
(3) Inhibitory activity of sample compounds on ^3 H-mibolerone specific binding
The compounds obtained in the experiments were added simultaneously with ^3 H-mibolerone at different concentrations to incubate same as in (2), and the specific binding amount of 3H-mibolerone on androgen receptor was determined. Comparing this value with the value obtained in (2), the IC50 value of inhibitory activity of the compounds on ^3 H-mibolerone specific binding was determined.

| Compound | IC50 [1] [M] | IC50 [2] [M] |
| --- | --- | --- |
| Cc1ccccc1Sc1ccc(-c2cnn3c(O)ncnc23)cc1C [Example 82, 4-Hydroxy-8-[3-methyl-4-(2-methylphenylthio)phenyl]pyrazolo[1,5-a]-1,3,5-triazine] | 1.1e-06 |  |
| Oc1ccnc2c(-c3ccc(Sc4ccccc4)cc3)cnn12 [Example 3, 7-Hydroxy-3-(4-phenylthiophenyl)pyrazolo[1,5-a]pyrimidine] | 8.5e-07 | 9e-08 |
| N#Cc1ccc(NS(=O)(=O)c2ccc(-c3cnn4c(O)ncnc34)cc2)cc1 [Example 94, 8-[4-(4-cyanophenylaminosulfonyl)phenyl]-4-hydroxypyrazolo[1,5-a]-1,3,5-triazine] | 6e-07 |  |
| CCc1ccc(NS(=O)(=O)c2ccc(-c3cnn4c(O)ncnc34)cc2)cc1 [Example 89, 8-[4-(4-Ethylphenylaminosulfonyl)phenyl]-4-hydroxypyrazlo[1,5-a]-1,3,5-triazine] | < 5e-06 |  |
| Oc1ncnc2c(-c3ccc(Sc4ccccc4)cc3)cnn12 [Example 77, 4-Hydroxy-8-(4-phenylthiophenyl)pyrazolo[1,5-a]-1,3,5-triazine] | 9.6e-07 | 4.6e-07 |
| Cc1ccc(Sc2ccc(-c3cnn4c(O)ncnc34)cc2C)cc1 [Example 84, 4-Hydroxy-8-[3-methyl-4-(4-methylphenylthio)phenyl]pyrazolo[1,5-a]-1,3,5-triazine] | 1.5e-06 |  |
| COc1ccc(Sc2ccc(-c3cnn4c(O)ncnc34)cc2C)cc1 [Example 86, 4-Hydroxy-8-[4-(4-methoxyphenylthio)-3-methyl]phenylpyrazolo[1,5-a]-1,3,5-triazine] | 1.2e-07 |  |
| O=S(=O)(NC1CCCCC1)c1ccc(-c2cnn3c(O)ncnc23)cc1 [Example 98, 8-(4-cyclohexylaminosulfonylphenyl)-4-hydroxypyrazolo[1,5-a]-1,3,5-triazine] | 3.6e-07 |  |

More lines, now with the values ahead:

| IC50 [1] [M] | IC50 [2] [M] | Compound |
| --- | --- | --- |
| 3e-07 | 1.5e-07 | COc1cc(-c2cnn3c(O)ncnc23)ccc1Sc1ccccc1 [Example 101, 4-Hydroxy-8-(3-methoxy-4-phenylthiophenyl)pyrazolo [1,5-a]-1,3,5-triazine] |
| 5e-07 | 5e-07 | Cc1cc(O)n2ncc(-c3ccc(Sc4ccccc4)cc3)c2n1 [Example 5, 7-Hydroxy-5,methyl-3-(4-phenylthiophenyl)pyrazolo[1,5-a]pyrimidine] |
| 2.2e-06 |  | Oc1ncnc2c(-c3ccc(Sc4ccccc4)c(Cl)c3)cnn12 [Example 102, 8-(3-chloro-4-phenylthiophenyl)-4-hydroxypyrazolo[1,5-a]-1,3,5-triazine] |
| < 5e-06 |  | Cc1ccc(NS(=O)(=O)c2ccc(-c3cnn4c(O)ncnc34)cc2)cc1 [Example 88, 4-Hydroxy-8-[4-(4-methylphenylaminosulfonyl)phenyl]pyrazolo[1,5-a]-1,3,5-triazine] |
| 1.2e-06 |  | O=S(=O)(Nc1ccc(Cl)cc1)c1ccc(-c2cnn3c(O)ncnc23)cc1 [Example 95, 8-[4-(4-chlorophenylaminosulfonyl)phenyl]-4-hydroxypyrazolo[1,5-a]-l,3,5-triazine] |
| 1.6e-07 |  | COc1cccc(Sc2ccc(-c3cnn4c(O)ncnc34)cc2C)c1 [Example 85, 4-Hydroxy-8-[4-(3-methoxyphenylthio)-3-methyl]phenylpyrazolo[1,5-a]-1,3,5-triazine] |
| 5e-06 |  | O=S(=O)(Nc1cccnc1)c1ccc(-c2cnn3c(O)ncnc23)cc1 [Example 97, 4-Hydroxy-8-[4-(3-pyridylaminosulfonyl)phenyl]pyrazolo[1,5-a]-1,3,5-triazine] |
| 1.3e-07 | 4e-08 | O=S(=O)(Nc1ccccc1)c1ccc(-c2cnn3c(O)ncnc23)cc1 [Example 87, 4-Hydroxy-8-(4-phenylaminosulfonylphenyl)pyrazolo[1,5-a]-1,3,5-triazine] |
